The supplement of paper PMC9663587

Experiments:
[1] = compound: T1, CCOc1cc2ncc(C#N)c(Nc3ccc(OCc4ccccn4)c(Cl)c3)c2cc1NC(=O)/C=C/CN(C)C [Neratinib/HKI272]; assay: GR value, 72 h; higher = faster growth (1 = untreated, <0 = killing);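 further: breast cancer and non-malignant breast epithelial lines, nine half-log doses, viable cells counted by Hoechst and LIVE/DEAD dye imaging versus time-zero plates and DMSO controls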
[2] = compound: T2, CN1CC[C@H](c2c(O)cc(O)c3c(=O)cc(-c4ccccc4Cl)oc23)[C@H](O)C1 [Flavopiridol]; assay: as above
[3] = compound: CCc1cnn2c(NCc3ccc[n+]([O-])c3)cc(N3CCCC[C@H]3CCO)nc12; assay: increase in dead-cell fraction, 72 h; higher = more death;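 further: breast cancer cell lines in 384-well plates, stained with Hoechst plus LIVE/DEAD far red dye and imaged, cells above an LDR intensity threshold counted dead, Hoechst-negative corpses included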
[4] = compound: CN(C)C/C=C/C(=O)Nc1ccc(C(=O)Nc2cccc(Nc3ncc(Cl)c(-c4c[nH]c5ccccc45)n3)c2)cc1 [THZ1]; assay: as above
[5] = compound: T1, Neratinib/HKI272; assay: as above
[6] = compound: CC(=O)c1c(C)c2cnc(Nc3ccc(N4CCNCC4)cn3)nc2n(C2CCCC2)c1=O; assay: as above
[7] = compound: C=CC(=O)Nc1ccc(C(=O)Nc2[nH]nc3c2CN(C(=O)N[C@H](CN(C)C)c2ccccc2)C3(C)C)cc1 [YKL-5-124]; assay: as above
[8] = compound: CC(=O)c1c(C)c2cnc(Nc3ccc(N4CCN(CCOCCOCCOCCNC(=O)COc5cccc6c5C(=O)N(C5CCC(=O)NC5=O)C6=O)CC4)cn3)nc2n(C2CCCC2)c1=O [BSJ-03-123]; assay: as above
[9] = compound: CN(C)C/C=C/C(=O)Nc1ccc(C(=O)N2CCC[C@@H](Nc3ncc(Cl)c(-c4c[nH]c5ccccc45)n3)C2)cc1 [THZ531]; assay: as above
[10] = compound: CN(C)C(=O)c1cc2cnc(Nc3ccc(N4CCNCC4)cn3)nc2n1C1CCCC1 [LEE011/Ribociclib]; assay: as above
[11] = compound: T2, Flavopiridol; assay: as above
[12] = compound: CCN1CCN(Cc2ccc(Nc3ncc(F)c(-c4cc(F)c5nc(C)n(C(C)C)c5c4)n3)nc2)CC1; assay: as above

MGH312
GR value ([1]; 0.0003162 µM): 0.953 GR | GR value ([1]; 0.001 µM): 1.02 GR | GR value ([1]; 0.003162 µM): 0.997 GR | GR value ([1]; 0.01 µM): 0.787 GR | GR value ([1]; 0.03162 µM): 0.606 GR | GR value ([1]; 0.1 µM): 0.489 GR | GR value ([1]; 0.3162 µM): 0.502 GR | GR value ([1]; 1 µM): 0.238 GR | GR value ([1]; 3.162 µM): -0.252 GR | GR value ([2]; 0.0001 µM): 1.11 GR | GR value ([2]; 0.0003162 µM): 1.12 GR | GR value ([2]; 0.001 µM): 0.95 GR | GR value ([2]; 0.003162 µM): 0.74 GR | GR value ([2]; 0.01 µM): 0.921 GR | GR value ([2]; 0.03162 µM): 0.947 GR | GR value ([2]; 0.1 µM): 0.503 GR | GR value ([2]; 0.3162 µM): -0.521 GR | GR value ([2]; 1 µM): -0.945 GR | increase in dead-cell fraction ([3]; 0.0001 µM): 0.0027 | increase in dead-cell fraction ([3]; 0.0003162 µM): 0.0051 | increase in dead-cell fraction ([3]; 0.001 µM): -0.0065 | increase in dead-cell fraction ([3]; 0.003162 µM): -0.0023 | increase in dead-cell fraction ([3]; 0.01 µM): 0.0052 | increase in dead-cell fraction ([3]; 0.03162 µM): 0.481 | increase in dead-cell fraction ([3]; 0.1 µM): 0.649 | increase in dead-cell fraction ([3]; 0.3162 µM): 0.713 | increase in dead-cell fraction ([3]; 1 µM): 0.67 | increase in dead-cell fraction ([4]; 0.0001 µM): -0.0154 | increase in dead-cell fraction ([4]; 0.0003162 µM): 0 | increase in dead-cell fraction ([4]; 0.001 µM): -0.0061 | increase in dead-cell fraction ([4]; 0.003162 µM): 0.0002 | increase in dead-cell fraction ([4]; 0.01 µM): 0.0559 | increase in dead-cell fraction ([4]; 0.03162 µM): 0.541 | increase in dead-cell fraction ([4]; 0.1 µM): 0.684 | increase in dead-cell fraction ([4]; 0.3162 µM): 0.628 | increase in dead-cell fraction ([4]; 1 µM): 0.699 | increase in dead-cell fraction ([5]; 0.0003162 µM): -0.0056 | increase in dead-cell fraction ([5]; 0.001 µM): -0.0054 | increase in dead-cell fraction ([5]; 0.003162 µM): -0.0078 | increase in dead-cell fraction ([5]; 0.01 µM): 0.0126 | increase in dead-cell fraction ([5]; 0.03162 µM): 0.0263 | increase in dead-cell fraction ([5]; 0.1 µM): 0.0191 | increase in dead-cell fraction ([5]; 0.3162 µM): 0.0224 | increase in dead-cell fraction ([5]; 1 µM): 0.0395 | increase in dead-cell fraction ([5]; 3.162 µM): 0.0962 | increase in dead-cell fraction ([6]; 0.0003162 µM): -0.0083 | increase in dead-cell fraction ([6]; 0.001 µM): -0.0121 | increase in dead-cell fraction ([6]; 0.003162 µM): 0.0011 | increase in dead-cell fraction ([6]; 0.01 µM): -0.0042 | increase in dead-cell fraction ([6]; 0.03162 µM): 0.001 | increase in dead-cell fraction ([6]; 0.1 µM): -0.0039 | increase in dead-cell fraction ([6]; 0.3162 µM): 0.003 | increase in dead-cell fraction ([6]; 1 µM): 0.0034 | increase in dead-cell fraction ([6]; 3.162 µM): 0.0037 | increase in dead-cell fraction ([7]; 0.001 µM): 0.0188 | increase in dead-cell fraction ([7]; 0.003162 µM): 0.0332 | increase in dead-cell fraction ([7]; 0.01 µM): 0.0482 | increase in dead-cell fraction ([7]; 0.03162 µM): 0.0591 | increase in dead-cell fraction ([7]; 0.1 µM): 0.0669 | increase in dead-cell fraction ([7]; 0.3162 µM): 0.0808 | increase in dead-cell fraction ([7]; 1 µM): 0.0821 | increase in dead-cell fraction ([7]; 3.162 µM): 0.15 | increase in dead-cell fraction ([7]; 10 µM): 0.61 | increase in dead-cell fraction ([8]; 0.001 µM): -0.0024 | increase in dead-cell fraction ([8]; 0.003162 µM): 0.0067 | increase in dead-cell fraction ([8]; 0.01 µM): 0.0098 | increase in dead-cell fraction ([8]; 0.03162 µM): -0.0134 | increase in dead-cell fraction ([8]; 0.1 µM): 0.0037 | increase in dead-cell fraction ([8]; 0.3162 µM): 0.0116 | increase in dead-cell fraction ([8]; 1 µM): 0.0094 | increase in dead-cell fraction ([8]; 3.162 µM): 0.0031 | increase in dead-cell fraction ([8]; 10 µM): 0.55 | increase in dead-cell fraction ([9]; 0.0001 µM): -0.0016 | increase in dead-cell fraction ([9]; 0.0003162 µM): 0.006 | increase in dead-cell fraction ([9]; 0.001 µM): 0.0097 | increase in dead-cell fraction ([9]; 0.003162 µM): 0.002 | increase in dead-cell fraction ([9]; 0.01 µM): -0.0045 | increase in dead-cell fraction ([9]; 0.03162 µM): 0.0455 | increase in dead-cell fraction ([9]; 0.1 µM): 0.662 | increase in dead-cell fraction ([9]; 0.3162 µM): 0.72 | increase in dead-cell fraction ([9]; 1 µM): 0.639 | increase in dead-cell fraction ([10]; 0.001 µM): -0.0153 | increase in dead-cell fraction ([10]; 0.003162 µM): -0.0081 | increase in dead-cell fraction ([10]; 0.01 µM): 0.0061 | increase in dead-cell fraction ([10]; 0.03162 µM): -0.0004 | increase in dead-cell fraction ([10]; 0.1 µM): 0.001 | increase in dead-cell fraction ([10]; 0.3162 µM): -0.0068 | increase in dead-cell fraction ([10]; 1 µM): 0.006 | increase in dead-cell fraction ([10]; 3.162 µM): 0.004 | increase in dead-cell fraction ([10]; 10 µM): -0.0032 | increase in dead-cell fraction ([11]; 0.0001 µM): -0.004 | increase in dead-cell fraction ([11]; 0.0003162 µM): -0.0016 | increase in dead-cell fraction ([11]; 0.001 µM): -0.0079 | increase in dead-cell fraction ([11]; 0.003162 µM): 0.013 | increase in dead-cell fraction ([11]; 0.01 µM): 0.0083 | increase in dead-cell fraction ([11]; 0.03162 µM): -0.0027 | increase in dead-cell fraction ([11]; 0.1 µM): 0.0209 | increase in dead-cell fraction ([11]; 0.3162 µM): 0.249 | increase in dead-cell fraction ([11]; 1 µM): 0.705 | increase in dead-cell fraction ([12]; 0.001 µM): -0.0051 | increase in dead-cell fraction ([12]; 0.003162 µM): -0.0048 | increase in dead-cell fraction ([12]; 0.01 µM): -0.0002 | increase in dead-cell fraction ([12]; 0.03162 µM): -0.0029 | increase in dead-cell fraction ([12]; 0.1 µM): -0.0075 | increase in dead-cell fraction ([12]; 0.3162 µM): 0.0016 | increase in dead-cell fraction ([12]; 1 µM): -0.0026 | increase in dead-cell fraction ([12]; 3.162 µM): 0.0207 | increase in dead-cell fraction ([12]; 10 µM): 0.208
